This note sets out measurements from paper PMC9617675 (Antiviral Research, 2022).

Molecules are shown by their SMILES. Like-named read-outs stand apart in the source and are kept apart here.

This data set relates to SARS-CoV-2 Delta variant. The conditions noted are these: for lung histopathology (H&E): day 2 and day 4; for brain histopathology (H&E): day 4.
Where [1] appears, read: day 4, both 100 mpk and 200 mpk groups.

With `O=C[C@H](C[C@@H]1CCNC1=O)NC(=O)[C@H](CC1CCCCC1)NC(=O)c1cc2ccccc2[nH]1` [FB2001], for the setting “100 mpk and 200 mpk groups, vs day 0”, the “change in the body weight of the mice” value is recorded as “no significant change”. For the setting “100 mpk, day 2, vs vehicle”, the “reduction of lung viral load” value was determined as 1.02 log10 copies/g. Under “100 mpk”, the “lung histopathology (H&E)” value is given as “mild interstitial inflammatory cell infiltration” and the “brain histopathology (H&E)” value is on record as “some neurons were denatured”. In addition, for the setting “100 mpk, day 4, vs vehicle”, the “reduction of brain viral load” value came out at 2.37 log10 copies/g and the “reduction of lung viral load” value was 0.67 log10 copies/g. Also, under “200 mpk, day 2, vs vehicle”, the “reduction of lung viral load” value was 1.60 log10 copies/g and the “reduction of virus titer in lung” value is reported as 3.57 log10 PFU/g. Moreover, for the setting “200 mpk”, the “lung histopathology (H&E)” value is “decreased inflammation and normal alveolar spaces”; the “brain histopathology (H&E)” value is “Neuronal cells were neatly arranged and abundant”. In addition, where the note is “200 mpk, day 4, vs vehicle”, the “reduction of brain viral load” value amounted to 5.26 log10 copies/g and the “reduction of lung viral load” value is on record as 1.14 log10 copies/g. Moreover, under setting [1], the “brain immunohistochemistry staining of viral NP” value is “nearly cleared” and the “lung immunohistochemistry staining of viral NP” value is “almost cleared”. Moreover, for the setting “mouse, in vivo”, the “Viral titer in brain, Mean” value is on record as “below the detection limit” and the “Viral titer in lung, Mean” value is “below the detection limit”.
